# Results from patent publication US5585355A, “Method for increasing blood-ocular barrier permeability with permeabilizer peptides” (Alkermes, Inc., priority 1994, dated 1996).
# Legend:
# [1] = system: blood-ocular barrier; assay: Uptake of [3H]-ganciclovir into the eye after arterial infusion of A-7 (VEP); format: in vivo, guinea pig; settings: for KIN of [3H]-ganciclovir: 0 min to 3.0 min; for KIN for ganciclovir, times higher in the presence of A-7: 0 to 3.0 min
# Procedure: Animals were anaesthetized with 6 mg/kg xylazine (Rompun®, Mobay Corp., Shawnee, Kans.) and 30 mg/kg ketamine (Vetacet®, Abeco Co., Inc., Fort Dodge, Iowa) before surgically exposing the neck vessels. The vascular eye perfusion (VEP) technique used here and previously described by Zlokovic et al. (1992, Exp. Eye Res., 54:471) allows for the study of uptake of agents in to the eye while protecting the eye from systemic metabolic changes. The technique is briefly summarized here. A fine polyethylene catheter connected to the extracorporeal perfusion system by silicon tubings was inserted into the right common carotid artery. Immediately after the start of the perfusion, the contralateral carotid artery was ligated and both jugular veins cut to allow free drainage of the perfusate.
# The perfusion medium consisted of 20% washed sheep red blood cells (RBC) suspended in mock plasma of the following composition (in mM): 123 NaCl, 4 KCl, 2.5 CaCl2.H2 O, 25 NaHCO3, 1.2 KH2 PO4, 1.8 MgCl2.6H2 O and 5.5 D-glucose. The perfusion medium was gassed with 96% O2 and 4% CO2 and warmed to 37.6° C., and was pumped from a reservoir through a water bath using a Rainin Rabbit peristaltic pump (Rainin Instruments, Woburn, Mass.). All tubing was low gas permeable silicon, and all metal was medical grade stainless steel. The temperature and perfusion pressure were continuously recorded, and the acid-base status frequently monitored. Perfusion pressure was kept slightly above the animal's blood pressure to eliminate any possible ingress from the systemic circulation.
# Isotopically labeled [^14 C]-sucrose was introduced into the perfusion circuit after the 5 minute infusion at a rate of 0.4 to 0.6 μCi/ml/min, over periods ranging from 1.5 min to 4.5 min. In all experiments, the perfusion was terminated by severing the right common carotid artery and decapitating the animal.
# As large a sample as possible (30-40 μl) of the aqueous humor was removed with a 0.5 cc U-100 insulin syringe using 28 G 1/2 microfine IV needle (no dead-space), immediately after the perfusion was terminated. The eyes were enucleated and the lenses rapidly excised via a lateral approach 1.5 mm posteriorly to the limbus. The lenses were blotted on filter paper to remove any adhering aqueous humor and to avoid epithelial contamination by aqueous radioactivity. Corneas were dissected circumferentially about 0.5 mm anteriorly to the limbus. After removal of the anterior segment of the eye, the vitreous body was dissected from the retinal surface. Retinas were scooped from the lying epithelium. All tissues were blotted after dissection to minimize contamination by adjacent tissue layers and/or fluids. Samples of plasma, aqueous humor, lens, cornea, retina and posterior vitreous were treated with 2 ml Beckman Tissue Solubilizer (BTS)-450, and 16 ml of scintillant (Beckman Ready Organic, Fullerton, Calif.). Radioactivity was determined in a Beckman LS-7500 liquid scintillation spectrometer.
# The methodology of these experiments is similar to that of Example 1 described above. […] The ocular compartments were dissected as described above and analyzed for uptake of [^3 H]-ganciclovir.
# [2] = system: blood-ocular barrier; assay: Uptake of [3H]-ganciclovir into retina and lens following intravenous administration of A-7; format: in vivo, guinea pig; settings: for Uptake of [3H]-ganciclovir, % of plasma concentration (W/W): five minute intravenous administration of A-7
# Procedure: The methodology of these experiments is similar to that of Example 1 except for the following modifications. In this case, [^3 H]-ganciclovir (22 Ci mmol^-1, Moravek Brea, Calif.) was injected into the right jugular vein instead of the common carotid artery. […] The lenses and retinas were removed as described in Example 1.
substance,measurement,setting,value
Arginine-Proline-Hydroxyproline-Glycine-Thienylalanine-Serine-Proline-4-Me-Tyrosine-(CH2 NH)Arginine [A-7],"Uptake of [3H]-ganciclovir, % of plasma concentration (W/W)","[1]; aqueous, 1.5 min, arterial infusion of A-7",0.46 ± 0.1 % of Plasma Concentration (W/W
same,"Uptake of [3H]-ganciclovir, % of plasma concentration (W/W)","[1]; aqueous, 3.0 min, arterial infusion of A-7",0.51 ± 0.21 % of Plasma Concentration (W/W
same,"Uptake of [3H]-ganciclovir, % of plasma concentration (W/W)","[1]; aqueous, 4.5 min, arterial infusion of A-7",0.55 ± 1.0 % of Plasma Concentration (W/W
same,Ganciclovir uptake into other compartments,"[1]; compartments other than retina and lens, within the measured time periods",did not substantially increase
same,KIN of [3H]-ganciclovir,[1]; cornea,1.21 µL/min/g
same,"Uptake of [3H]-ganciclovir, % of plasma concentration (W/W)","[1]; cornea, 1.5 min, arterial infusion of A-7",1.16 ± 0.53 % of Plasma Concentration (W/W
same,"Uptake of [3H]-ganciclovir, % of plasma concentration (W/W)","[1]; cornea, 3.0 min, arterial infusion of A-7",2.98 ± 0.33 % of Plasma Concentration (W/W
same,"Uptake of [3H]-ganciclovir, % of plasma concentration (W/W)","[1]; cornea, 4.5 min, arterial infusion of A-7",2.92 ± 0.46 % of Plasma Concentration (W/W
same,KIN of [3H]-ganciclovir,[1]; lens,40.3 ± 5.6 µL/min/g
same,"KIN for ganciclovir, times higher in the presence of A-7",[1]; lens,1.3 times
same,"Uptake of [3H]-ganciclovir, % of plasma concentration (W/W)","[1]; lens, 1.5 min, arterial infusion of A-7",7.89 ± 0.52 % of Plasma Concentration (W/W
same,"Uptake of [3H]-ganciclovir, % of plasma concentration (W/W)","[1]; lens, 3.0 min, arterial infusion of A-7",11.86 ± 1.42 % of Plasma Concentration (W/W
same,"Uptake of [3H]-ganciclovir, % of plasma concentration (W/W)","[1]; lens, 4.5 min, arterial infusion of A-7",13.37 ± 1.06 % of Plasma Concentration (W/W
same,Increase in uptake of ganciclovir into the lens,"[1]; lens, from 1.5 to 4.5 minutes of VEP",1.5-2 fold
same,KIN of [3H]-ganciclovir,[1]; retina,21.2 ± 1.5 µL/min/g
same,"KIN for ganciclovir, times higher in the presence of A-7",[1]; retina,2.6 times
same,"Uptake of [3H]-ganciclovir, % of plasma concentration (W/W)","[1]; retina, 1.5 min, after 5 min arterial infusion of A-7",3.96 ± 0.68 % of Plasma Concentration (W/W
same,"Uptake of [3H]-ganciclovir, % of plasma concentration (W/W)","[1]; retina, 3.0 min, after 5 min arterial infusion of A-7",6.56 ± 0.79 % of Plasma Concentration (W/W
same,"Uptake of [3H]-ganciclovir, % of plasma concentration (W/W)","[1]; retina, 4.5 min, after 5 min arterial infusion of A-7",7.42 ± 1.14 % of Plasma Concentration (W/W
same,Increase of retinal uptake of ganciclovir compared to vehicle control,"[1]; retina, from 1.5 to 4.5 minutes of VEP",two-fold
same,KIN of [3H]-ganciclovir,[1]; vitreous,0.47 µL/min/g
same,"Uptake of [3H]-ganciclovir, % of plasma concentration (W/W)","[1]; vitreous, 1.5 min, arterial infusion of A-7",0.02 ± 0.00 % of Plasma Concentration (W/W
same,"Uptake of [3H]-ganciclovir, % of plasma concentration (W/W)","[1]; vitreous, 3.0 min, arterial infusion of A-7",0.04 ± 0.03 % of Plasma Concentration (W/W
same,"Uptake of [3H]-ganciclovir, % of plasma concentration (W/W)","[1]; vitreous, 4.5 min, arterial infusion of A-7",0.11 ± 0.04 % of Plasma Concentration (W/W
same,"Uptake of [3H]-ganciclovir, % of plasma concentration (W/W)","[2]; lens, 1.5 min",5.46 ± 1.08 % of Plasma Concentration (W/W
same,"Uptake of [3H]-ganciclovir, % of plasma concentration (W/W)","[2]; lens, 4.5 min",10.01 ± 1.37 % of Plasma Concentration (W/W
same,"Uptake of [3H]-ganciclovir, % of plasma concentration (W/W)","[2]; retina, 1.5 min",3.94 ± 0.36 % of Plasma Concentration (W/W
same,"Uptake of [3H]-ganciclovir, % of plasma concentration (W/W)","[2]; retina, 4.5 min",8.45 ± 1.00 % of Plasma Concentration (W/W
same,Increase of retinal uptake of [3H]-ganciclovir above vehicle treated controls,"[2]; retina, intravenous A-7, p=0.001",more than 2 fold
